Reference: PubChem BioAssay (NCI)
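Five concentrations, 48 hours, 96-well plates. GI50 = concentration required for 50% inhibition of growth. Definition used: TGI = concentration required for complete inhibition of growth.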

Tests used:
Assay in all cases: inhibition of tumour cell growth, NCI panel, 48 h
NCI-H23 lung = system: NCI-H23 lung
SF-268 CNS = system: SF-268 CNS
SF-295 CNS = system: SF-295 CNS
SK-MEL-5 melanoma = system: SK-MEL-5 melanoma
SR leukemia = system: SR leukemia
TK-10 renal = system: TK-10 renal
DU-145 prostate = system: DU-145 prostate
MDA-MB-231 breast = system: MDA-MB-231 breast
MDA-MB-435 = system: MDA-MB-435
PC-3 prostate = system: PC-3 prostate

SMILES: CC(C)(C)CI
- TGI (NCI-H23 lung): > 100 µM
- TGI (SF-268 CNS): > 100 µM
- TGI (SF-295 CNS): 33.9 µM
- TGI (SK-MEL-5 melanoma): 30.9 µM
- TGI (SR leukemia): 76.7 µM
- TGI (TK-10 renal): > 100 µM

SMILES: COc1nc(NC2OC(CO)C(O)C(O)C2O)c(N)c(=O)[nH]1 (configuration not stated)
- TGI (NCI-H23 lung): > 100 µM
- TGI (SF-268 CNS): > 100 µM
- TGI (SF-295 CNS): > 100 µM
- TGI (SK-MEL-5 melanoma): > 100 µM

SMILES: CC1OC(CO)(n2cnc3c(N)ncnc32)C(O)C1O (configuration not stated)
- TGI (NCI-H23 lung): > 100 µM
- TGI (SF-268 CNS): > 100 µM
- TGI (SF-295 CNS): > 100 µM
- TGI (SK-MEL-5 melanoma): > 100 µM

SMILES: COC(=O)Cc1c(C2C(CC(=O)OC)c3ccccc3N2C2OC(CO)C(O)C(O)C2O)[nH]c2ccccc12 (configuration not stated)
- TGI (DU-145 prostate): > 100 µM
- TGI (MDA-MB-231 breast): > 100 µM
- TGI (MDA-MB-435): > 100 µM
- TGI (NCI-H23 lung): > 100 µM
- TGI (PC-3 prostate): > 100 µM
- TGI (SF-268 CNS): > 100 µM
- TGI (SF-295 CNS): > 100 µM
- TGI (SK-MEL-5 melanoma): > 100 µM
- TGI (SR leukemia): > 100 µM
- TGI (TK-10 renal): > 100 µM

SMILES: CON[N+]([O-])=NC(C)C
- TGI (DU-145 prostate): > 100 µM
- TGI (MDA-MB-231 breast): > 100 µM
- TGI (MDA-MB-435): > 100 µM
- TGI (NCI-H23 lung): > 100 µM
- TGI (PC-3 prostate): > 100 µM
- TGI (SF-268 CNS): > 100 µM
- TGI (SF-295 CNS): > 100 µM
- TGI (SK-MEL-5 melanoma): > 100 µM
- TGI (SR leukemia): > 100 µM
- TGI (TK-10 renal): > 100 µM

SMILES: CCCCCCCCCCCCCCCCCCOc1ccccc1COP(=O)(O)OOCC[N+](C)(C)C
- GI50 (DU-145 prostate): 1.88 µM
- TGI (DU-145 prostate): 7.43 µM
- GI50 (MDA-MB-231 breast): 0.932 µM
- TGI (MDA-MB-231 breast): 2.26 µM
- GI50 (MDA-MB-435): 2.65 µM
- TGI (MDA-MB-435): 12.3 µM
- GI50 (NCI-H23 lung): 0.804 µM
- TGI (NCI-H23 lung): 4.27 µM
- GI50 (PC-3 prostate): 0.824 µM
- TGI (PC-3 prostate): 1.8 µM
- GI50 (SF-268 CNS): 1.55 µM
- TGI (SF-268 CNS): 7.19 µM
- GI50 (SF-295 CNS): 1.23 µM
- TGI (SF-295 CNS): 4.32 µM
- GI50 (SK-MEL-5 melanoma): 0.813 µM
- TGI (SK-MEL-5 melanoma): 1.5 µM
- GI50 (TK-10 renal): 1.35 µM
- TGI (TK-10 renal): 4.49 µM

SMILES: O=c1oc2ccccc2n1P(=O)(Oc1ccc(Cl)cc1)n1c(=O)oc2ccccc21
- TGI (NCI-H23 lung): > 100 µM
- TGI (SF-268 CNS): > 100 µM
- TGI (SF-295 CNS): > 100 µM
- TGI (SK-MEL-5 melanoma): > 100 µM
- TGI (SR leukemia): > 100 µM
- TGI (TK-10 renal): > 100 µM

SMILES: O=C1OC(c2ccccc2Br)=N/C1=C/c1ccccc1
- TGI (DU-145 prostate): > 100 µM
- TGI (MDA-MB-231 breast): 89.8 µM
- TGI (MDA-MB-435): 93.7 µM
- TGI (NCI-H23 lung): > 100 µM
- TGI (PC-3 prostate): > 100 µM
- TGI (SF-268 CNS): > 100 µM
- TGI (SF-295 CNS): > 100 µM
- TGI (SK-MEL-5 melanoma): > 100 µM
- TGI (SR leukemia): > 100 µM
- TGI (TK-10 renal): > 100 µM

SMILES: COc1cc(N(CCCl)CCCl)ccc1/C=N\NC(=O)c1cccnc1
- GI50 (DU-145 prostate): 24.6 µM
- TGI (DU-145 prostate): > 100 µM
- GI50 (MDA-MB-231 breast): 33.8 µM
- TGI (MDA-MB-231 breast): > 100 µM
- GI50 (MDA-MB-435): 30.3 µM
- TGI (MDA-MB-435): > 100 µM
- GI50 (NCI-H23 lung): 26.7 µM
- TGI (NCI-H23 lung): > 100 µM
- GI50 (PC-3 prostate): 21.4 µM
- TGI (PC-3 prostate): > 100 µM
- GI50 (SF-268 CNS): 36.6 µM
- TGI (SF-268 CNS): > 100 µM
- GI50 (SF-295 CNS): 4.31 µM
- TGI (SF-295 CNS): 35.7 µM
- GI50 (SK-MEL-5 melanoma): 16.4 µM
- TGI (SK-MEL-5 melanoma): 36 µM
- GI50 (SR leukemia): 13.7 µM
- TGI (SR leukemia): > 100 µM
- GI50 (TK-10 renal): 16.9 µM
- TGI (TK-10 renal): 53.5 µM

SMILES: O=C1CCC2COc3ccc(O)c1c32 (configuration not stated)
- TGI (NCI-H23 lung): > 100 µM
- TGI (SF-295 CNS): > 100 µM
- TGI (SK-MEL-5 melanoma): > 100 µM
- TGI (TK-10 renal): > 100 µM

SMILES: C#CCNC(=O)CC[C@@H](C)[C@H]1CC[C@H]2[C@@H]3CC[C@@H]4CC(=O)CC[C@]4(C)[C@H]3CC[C@]12C
- GI50 (DU-145 prostate): 14.8 µM
- TGI (DU-145 prostate): 35.1 µM
- GI50 (MDA-MB-231 breast): 16.5 µM
- TGI (MDA-MB-231 breast): 38.9 µM
- GI50 (MDA-MB-435): 18.7 µM
- TGI (MDA-MB-435): 60.1 µM
- GI50 (NCI-H23 lung): 19.6 µM
- TGI (NCI-H23 lung): 75.7 µM
- GI50 (PC-3 prostate): 2.91 µM
- TGI (PC-3 prostate): 24.2 µM
- GI50 (SF-268 CNS): 17.5 µM
- TGI (SF-268 CNS): 44.4 µM
- GI50 (SF-295 CNS): 19.3 µM
- TGI (SF-295 CNS): 49.4 µM
- GI50 (SK-MEL-5 melanoma): 8.71 µM
- TGI (SK-MEL-5 melanoma): 23.2 µM
- GI50 (SR leukemia): 3.17 µM
- TGI (SR leukemia): 33.3 µM
- GI50 (TK-10 renal): 18 µM
- TGI (TK-10 renal): 44.5 µM
